Legend:
[1] = molecular target: T1, recombinant MST2 (Homo sapiens, UniProt Q13188); experiment: Inhibition of Mst2 kinase activity, ELISA of Mob1 substrate phosphorylation; format: biochemical; settings: MST2 IC50, 3.7 nM recombinant MST2; ATP 11.2 gIVI; GST-Mob1a substrate; 30° C. 15 min
T1 sequence (Q13188 1-491): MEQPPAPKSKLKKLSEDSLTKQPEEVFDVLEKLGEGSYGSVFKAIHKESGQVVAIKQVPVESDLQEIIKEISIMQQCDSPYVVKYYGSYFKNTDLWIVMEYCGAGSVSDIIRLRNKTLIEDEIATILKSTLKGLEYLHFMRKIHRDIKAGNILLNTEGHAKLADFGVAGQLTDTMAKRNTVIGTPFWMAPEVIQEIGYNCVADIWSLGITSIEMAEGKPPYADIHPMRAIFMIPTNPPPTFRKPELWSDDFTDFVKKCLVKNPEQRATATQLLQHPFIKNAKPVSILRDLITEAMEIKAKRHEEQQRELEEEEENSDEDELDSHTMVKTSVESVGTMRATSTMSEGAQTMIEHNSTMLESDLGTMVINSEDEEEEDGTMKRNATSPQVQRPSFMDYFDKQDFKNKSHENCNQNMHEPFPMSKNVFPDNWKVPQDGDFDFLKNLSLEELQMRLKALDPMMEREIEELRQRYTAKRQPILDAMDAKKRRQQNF
Experimental: (§1) We adopt a specific ELISA (Enzyme-linked immunosorbent assay) assay for measuring the biochemical activity (FIG. 1).
(§2) Specific methods are as follows:
(§3) 1. The substrate was diluted with purified recombinant GST-Mobla 200 nM in coating buffer, added to 96-well plates (Nalge Nunc International, Denmark), coated for overnight at 4° C., washed nextday three times with rinsing solution;
(§4) a. A kinase reaction buffer;
(§5) c. compound (dissolved in DMSO, containing not more than 1% of the total volume of the reaction);
(§6) Control Group Containing No ATP or Kinase;
(§7) 3. The reaction solution was poured to terminate the kinase reaction, and washed 4 times with rinse solution, 5 minutes each wash;
(§8) 4. Add 200 μL, per well of the blocking solution, shaking for 1 hour at room temperature, washed 4 times with rinsing solution;
(§9) 7. Add TMB chromogenic solution (Biolegend, Cat.B200119, B200120). After the color reaction to a certain extent, add to each well 100 μL, of 2M H2SO4 to terminate the reaction;
(§10) 8. […] Each set of three parallel experiments, the negative control is a solution with a final concentration of 1% DMSO, the control is the reaction system containing no ATP. […] The reagents are as follows: Coating Buffer: 0.1M NaHCO 3, 0.033M Na2CO3, pH 9.5 Rinse solution: 0.05% Tween-20 in PBS Reaction buffer: 40 mM of Hepes-NaOH (pH 7.4), 10 mM of MgCl2, 1 mM of dithiothreitol (DTT), 1 mM of NaF, 1 mM of Na3VO4, 1 mM of β-glycerophosphate Blocking solution: 1% BSA dissolved in PBS Compound Inhibition of Kinase Activity

[2] = molecular target: T2, recombinant Mst1 (Homo sapiens, UniProt Q13043); experiment: Inhibition of Mst1 kinase activity, ELISA of Mob1 substrate phosphorylation; format: biochemical; settings: MST1 IC50, recombinant Mst1 11 nM; ATP 6.7 gIVI; GST-Mob1a substrate; 30° C. 15 min
T2 sequence (Q13043 1-487): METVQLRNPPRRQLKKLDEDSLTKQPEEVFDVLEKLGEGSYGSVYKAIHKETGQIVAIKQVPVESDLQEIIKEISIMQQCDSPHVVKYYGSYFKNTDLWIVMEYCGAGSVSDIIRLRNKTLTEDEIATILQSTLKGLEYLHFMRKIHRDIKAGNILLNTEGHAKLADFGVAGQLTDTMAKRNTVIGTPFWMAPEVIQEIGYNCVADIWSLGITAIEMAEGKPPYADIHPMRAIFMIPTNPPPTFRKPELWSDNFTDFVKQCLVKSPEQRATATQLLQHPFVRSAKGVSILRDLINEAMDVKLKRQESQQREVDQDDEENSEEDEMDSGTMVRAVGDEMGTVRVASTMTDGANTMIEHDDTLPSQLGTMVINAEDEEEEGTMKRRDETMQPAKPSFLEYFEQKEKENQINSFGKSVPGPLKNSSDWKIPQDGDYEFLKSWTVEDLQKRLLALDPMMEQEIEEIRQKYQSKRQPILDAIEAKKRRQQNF
Experimental: as §1, §2, §3, §4, §5, §6, §7, §8, §9, §10

SMILES | IC50 [1] [nM] | IC50 [2] [nM]
CSc1ccc(Nc2ncc3c(n2)N(C)c2ccccc2C(=O)N3C)cc1 [IC-6] | 1800 | 1910
CN1C(=O)c2sccc2N(C)c2nc(Nc3ccc(OC(=O)CCl)cc3)ncc21 [II-25] | 2240 | 580
Cc1cccc2c1N(C)c1nc(Nc3ccc(S(N)(=O)=O)cc3)ncc1N(C)C2=O [IH-4] | 190 | 150
CCN1c2ccccc2C(=O)N(C)c2cnc(Nc3cccc(S(N)(=O)=O)c3)nc21 [ID-3] | – | 8650
CN1C(=O)c2sccc2N(C)c2nc(Nc3cn[nH]c3)ncc21 [II-28] | 360 | 540
CN1C(=O)c2sccc2N(C)c2nc(Nc3ccc(S(C)(=O)=O)cc3)ncc21 [II-4] | 220 | 170
CN1CCN(C2CCN(C(=O)c3ccc(Nc4ncc5c(n4)N(C)c4ccsc4C(=O)N5C)cc3)CC2)CC1 [II-24] | 2250 | 220
CN1C(=O)c2sccc2N(C)c2nc(Nc3ccc(C(=O)O)cc3)ncc21 [II-10] | 1970 | 1020
Cc1ccc2c(c1)N(C)c1nc(Nc3ccc(S(C)(=O)=O)cc3)ncc1N(C)C2=O [IH-1] | 4810 | 5010
CN1C(=O)c2cccc(F)c2N(C)c2nc(Nc3ccc(S(C)(=O)=O)cc3)ncc21 [IH-12] | 1940 | 1660
CN1C(=O)c2ccc(Cl)cc2N(C)c2nc(Nc3ccc(S(C)(=O)=O)cc3)ncc21 [IH-14] | 22500 | –
CN1C(=O)c2sccc2N(C)c2nc(Nc3ccc(O)cc3)ncc21 [II-12] | 220 | 570
CN1CCC(n2cc(Nc3ncc4c(n3)N(C)c3ccsc3C(=O)N4C)cn2)CC1 [II-20] | 2320 | 110
CN1C(=O)c2cc(Cl)ccc2N(C)c2nc(Nc3ccc(S(C)(=O)=O)cc3)ncc21 [IH-9] | 11600 | 5670
CC(C)N1c2ccccc2C(=O)N(C)c2cnc(Nc3cccc(S(N)(=O)=O)c3)nc21 [IE-2] | – | 15800
CN1C(=O)c2cccc3c2N(CC3)c2nc(Nc3ccc(S(N)(=O)=O)cc3)ncc21 [IV-3] | 1610 | 430
CN1C(=O)c2ccccc2N(C2CCCC2)c2nc(Nc3ccc(S(=O)(=O)N4CCC(O)CC4)cc3)ncc21 [IF-3] | 15700 | 2440
CN1CCN(S(=O)(=O)c2ccc(Nc3ncc4c(n3)N(C3CCCC3)c3ccccc3C(=O)N4)cc2)CC1 [IB-2] | > 30000 | > 30000
CN1CCN(S(=O)(=O)c2ccc(Nc3ncc4c(n3)N(C)c3ccccc3C(=O)N4)cc2)CC1 [IA-2] | 14800 | 2380
CCN1CCN(Cc2ccc(Nc3ncc4c(n3)N(C3CCCC3)c3ccccc3C(=O)N4C)cc2C(F)(F)F)CC1 [IF-6] | – | 9760
CN1C(=O)c2ccccc2N(C2CCCC2)c2nc(Nc3ccc(S(N)(=O)=O)cc3)ncc21 [IF-2] | 3860 | 630
CN1C(=O)c2cc(Cl)ccc2N(C)c2nc(Nc3ccc(S(N)(=O)=O)cc3)ncc21 [IH-10] | – | 5930
C=CS(=O)(=O)Nc1ccc(Nc2ncc3c(n2)N(C)c2ccsc2C(=O)N3C)cc1 [II-26] | 410 | 820
CN1C(=O)c2ccc(F)cc2N(C)c2nc(Nc3ccc(S(C)(=O)=O)cc3)ncc21 [IH-8] | 3360 | 2170
CN1C(=O)c2ccccc2N(C)c2nc(Nc3ccc(S(=O)(=O)NC4CC4)cc3)ncc21 [IC-9] | 2330 | 180
CN1C(=O)c2sccc2N(C)c2nc(Nc3ccc(N4CCC(O)CC4)cc3)ncc21 [II-15] | 1990 | 650
CN1C(=O)c2ccccc2N(C)c2nc(Nc3ccc(S(N)(=O)=O)cc3)ncc21 [IC-1] | 110 | 70

SMILES | IC50 [1] [nM] | IC50 [2] [nM]
CN1CCN(c2ccc(Nc3ncc4c(n3)N(C)c3ccsc3C(=O)N4C)cc2)CC1 [II-21] | 3100 | 250
Cc1cccc2c1N(C)c1nc(Nc3ccc(S(C)(=O)=O)cc3)ncc1N(C)C2=O [IH-2] | 1680 | 890
CN1C(=O)c2sccc2N(C)c2nc(Nc3ccc(S(=O)(=O)N4CCC(O)CC4)cc3)ncc21 [II-8] | 1030 | 80
CN1C(=O)c2sccc2N(C)c2nc(Nc3cnn(C(=O)CCl)c3)ncc21 [II-30] | 440 | 810
CN1C(=O)c2ccc(F)cc2N(C)c2nc(Nc3ccc(S(N)(=O)=O)cc3)ncc21 [IH-7] | 2490 | 3120
Cc1ccc2c(c1)N(C)c1nc(Nc3ccc(S(N)(=O)=O)cc3)ncc1N(C)C2=O [IH-5] | 2730 | 2400
CN1C(=O)c2cccc(F)c2N(C)c2nc(Nc3ccc(S(N)(=O)=O)cc3)ncc21 [IH-11] | 440 | 230
CN1C(=O)c2sccc2N(C)c2nc(Nc3cc[nH]n3)ncc21 [II-27] | – | 3440
CN1C(=O)c2ccccc2N(C)c2nc(Nc3ccc(S(=O)(=O)N4CCC(O)CC4)cc3)ncc21 [IC-3] | 520 | 670
CN1C(=O)c2ccccc2N(C)c2nc(Nc3ccc(NS(C)(=O)=O)cc3)ncc21 [IC-10] | 80 | 240
CN1C(=O)c2sccc2N(C)c2nc(Nc3ccc(NC(=O)CCl)cc3)ncc21 [II-18] | 13000 | 3340
CN1CCN(S(=O)(=O)c2ccc(Nc3ncc4c(n3)N(C3CCCC3)c3ccccc3C(=O)N4C)cc2)CC1 [IF-4] | – | 6460
O=C1Nc2cnc(Nc3ccc(S(=O)(=O)N4CCC(O)CC4)cc3)nc2N(C2CCCC2)c2ccccc21 [IB-3] | > 30000 | > 30000
CN1C(=O)c2ccccc2N(C)c2nc(Nc3ccc(S(=O)(=O)Oc4ccccc4)cc3)ncc21 [IC-8] | 200 | 13500
CN1C(=O)c2cccc3c2N(CC3)c2nc(Nc3ccc(NS(C)(=O)=O)cc3)ncc21 [IV-1] | 3970 | 6070
CSc1ccc(Nc2ncc3c(n2)N(C)c2ccsc2C(=O)N3C)cc1 [II-3] | 1720 | 850
CN1C(=O)c2sccc2N(C)c2nc(Nc3ccc(S(=O)(=O)Oc4ccccc4)cc3)ncc21 [II-5] | 8890 | 4640
CN1C(=O)c2ccc(Cl)cc2N(C)c2nc(Nc3ccc(S(N)(=O)=O)cc3)ncc21 [IH-13] | 9470 | 7820
CN1C(=O)c2ccccc2Nc2nc(Nc3ccc(S(N)(=O)=O)cc3)ncc21 [IG-1] | 2700 | 1550
CN1C(=O)c2sccc2N(C)c2nc(Nc3ccc(C(N)=O)cc3)ncc21 [II-13] | 260 | 330
CN1C(=O)c2sccc2N(C)c2nc(Nc3ccc(S(=O)(=O)NC4CC4)cc3)ncc21 [II-6] | 20 | 260
CN1C(=O)c2sccc2N(C)c2nc(Nc3cccc(S(N)(=O)=O)c3)ncc21 [II-2] | – | 2710
CN1C(=O)c2sccc2N(C)c2nc(Nc3ccc(NC(=O)CBr)cc3)ncc21 [II-19] | 12600 | 3030
CN1C(=O)c2ccccc2N(C)c2nc(Nc3ccc(S(C)(=O)=O)cc3)ncc21 [IC-7] | 90 | 500
CN1CCN(S(=O)(=O)c2ccc(Nc3ncc4c(n3)N(C)c3ccccc3C(=O)N4C)cc2)CC1 [IC-2] | 7800 | 2320
CCN1c2ccccc2C(=O)N(C)c2cnc(Nc3ccc(NS(C)(=O)=O)cc3)nc21 [ID-2] | 390 | 80
